In patent publication US10538506B2, “Crystal form of a potassium-competitive acid blocker and preparation method thereof” (Jiangsu Hansoh Pharmaceutical Group Co., Ltd., priority 2014, dated 2020):

Experiments:
[1] = Hygroscopicity: weight gain due to moisture absorption; assay type: physicochemical
Experimental: The samples were prepared according to the method of Example 1, and the following tests were carried out:
(1) placing the sample at 25° C. and 75% humidity;
(2) placing the sample at 25° C. and 92.5% humidity.
The aforementioned two samples were taken and tested at different time points to investigate weight gain of the samples due to moisture absorption.

[2] = Long-term stability testing, inspection items; assay type: physicochemical; settings: for Appearance / Content (%) / HPLC identification / Moisture (%) / Particle size d (0.5) / Particle size d (0.9) / Related substance (%) Maximum unknown single impurity / Related substance (%) Total impurities: 30° C./65% humidity
Experimental: The samples were prepared according to the method of Example 1, and then were placed under the long-term stability conditions (temperature: 30° C.±2° C.; humidity: 65%±5%) for six months.

SMILES: CNCc1cc(-c2ccccc2F)n(S(=O)(=O)c2cccnc2)c1.O=C(O)/C=C/C(=O)O [Example 1, 1-[5-(2-fluorophenyl)-1-(pyridin-3-ylsulfonyl)-1H-pyrrol-3-yl]-N-methylmethanamine fumarate]
- weight gain due to moisture absorption (%) ([1]; 25° C./RH 75%, 5 days): 0.01%
- weight gain due to moisture absorption (%) ([1]; 25° C./RH 75%, 10 days): 0.13%
- weight gain due to moisture absorption (%) ([1]; 25° C./RH 75%, 30 days): 0.12%
- weight gain due to moisture absorption (%) ([1]; 25° C./RH 92.5%, 5 days): 0.17%
- weight gain due to moisture absorption (%) ([1]; 25° C./RH 92.5%, 10 days): 0.12%
- weight gain due to moisture absorption (%) ([1]; 25° C./RH 92.5%, 30 days): 0.19%
- Appearance ([2]; 0 months): White powder
- Content (%) ([2]; 0 months): 99.6%
- HPLC identification ([2]; 0 months): Consistent
- Moisture (%) ([2]; 0 months): 0.04%
- Particle size d (0.5) ([2]; 0 months): d (0.5) ≤15 μm
- Particle size d (0.9) ([2]; 0 months): d (0.9) ≤30 μm
- Related substance (%) Maximum unknown single impurity ([2]; 0 months): 0.03%
- Related substance (%) Total impurities ([2]; 0 months): 0.12%
- Appearance ([2]; 3 months): White powder
- Content (%) ([2]; 3 months): 100.0%
- HPLC identification ([2]; 3 months): Consistent
- Moisture (%) ([2]; 3 months): 0.08%
- Particle size d (0.5) ([2]; 3 months): d (0.5) ≤15 μm
- Particle size d (0.9) ([2]; 3 months): d (0.9) ≤30 μm
- Related substance (%) Maximum unknown single impurity ([2]; 3 months): 0.04%
- Related substance (%) Total impurities ([2]; 3 months): 0.13%
- Appearance ([2]; 6 months): White powder
- Content (%) ([2]; 6 months): 99.7%
- HPLC identification ([2]; 6 months): Consistent
- Moisture (%) ([2]; 6 months): 0.08%
- Particle size d (0.5) ([2]; 6 months): d (0.5) ≤15 μm
- Particle size d (0.9) ([2]; 6 months): d (0.9) ≤30 μm
- Related substance (%) Maximum unknown single impurity ([2]; 6 months): 0.03%
- Related substance (%) Total impurities ([2]; 6 months): 0.13%
- Stability ([2]; long-term storage conditions, 30° C.±2° C., humidity 65%±5%, six months, fumarate): good stability
